Assay results from ChEMBL document CHEMBL1130993, “1,2-disubstituted cyclohexane derived tripeptide aldehydes as novel selective thrombin inhibitors” (Bioorg Med Chem Lett, 1998).

Legend:
Prothrombin [1] = target: T1, Prothrombin (Homo sapiens, UniProt P00734); experiment: Compound was evaluated for percent inhibition of thrombin using the synthetic substrate chromozym TH at 100 uM
[2] = Compound was evaluated for IC50 ratio between human t-PA and thrombin
Prothrombin [3] = target: T1, Prothrombin; experiment: Compound was evaluated for the inhibition of thrombin using the synthetic substrate chromozym TH
[4] = Compound was evaluated for IC50 ratio between human plasmin and thrombin

Work on `CN(CCc1ccccc1)C(=O)[C@@H]1CCCC[C@H]1C(=O)N[C@@H](C=O)CCCN=C(N)N` yielded an inhibition (Prothrombin [1]) of 14%.
`CNC(Cc1ccccc1)C(=O)N[C@@H]1CCCC[C@@H]1C(=O)N[C@@H](C=O)CCCN=C(N)N` (stereo partly drawn) showed an inhibition (Prothrombin [1]) of 1%.
Work on `CN(Cc1ccccc1)C(=O)[C@H]1CCCC[C@@H]1C(=O)N[C@@H](C=O)CCCN=C(N)N` yielded an inhibition (Prothrombin [1]) of 27%.
Work on `CNC(Cc1ccc2ccccc2c1)C(=O)N[C@H]1CCCC[C@H]1C(=O)N[C@@H](C=O)CCCN=C(N)N` (stereo partly drawn) yielded a Selectivity [2] of over 5000, an IC50 (Prothrombin [3]) of 0.022 µM and a Selectivity [4] of 4540.
With `CNC(Cc1ccccc1)C(=O)N[C@@H]1CCCC[C@H]1C(=O)N[C@@H](C=O)CCCN=C(N)N` (stereo partly drawn) the Selectivity [2] was 1000, the IC50 (Prothrombin [3]) was 4 µM and the Selectivity [4] was 38. For the same compound, the inhibition (Prothrombin [1]) was 100%.
In the case of `CN[C@H](Cc1ccccc1)C(=O)N1CCC[C@H]1C(=O)N[C@H](C=O)CCCN=C(N)N` [EFEGATRAN], the IC50 (Prothrombin [3]) is reported as 0.046 µM.
`CNC(Cc1ccccc1)C(=O)N[C@H]1CCCC[C@@H]1C(=O)N[C@@H](C=O)CCCN=C(N)N` (stereo partly drawn) gave an inhibition (Prothrombin [1]) of 39%.
For `CNC(Cc1ccccc1)C(=O)N[C@H]1CCCC[C@H]1C(=O)N[C@@H](C=O)CCCN=C(N)N` (stereo partly drawn), the inhibition (Prothrombin [1]) was 6%.
With `CN(Cc1ccccc1)C(=O)[C@@H]1CCCC[C@H]1C(=O)N[C@@H](C=O)CCCN=C(N)N` the inhibition (Prothrombin [1]) was 8%.
In the case of `CN[C@H](Cc1ccccc1)C(=O)N1CCC[C@H]1C(=O)N[C@H](C=O)CCCNC(=N)N`, the Selectivity [4] is reported as 413.
For `CN(CCc1ccccc1)C(=O)[C@H]1CCCC[C@@H]1C(=O)N[C@@H](C=O)CCCN=C(N)N`, the inhibition (Prothrombin [1]) was 15%.
Work on `CN(Cc1ccccc1)C(=O)C1CCCCC1C(=O)N[C@@H](C=O)CCCN=C(N)N` (stereo partly drawn) yielded an inhibition (Prothrombin [1]) of 36%.
`CN(CCc1ccccc1)C(=O)[C@@H]1CCCC[C@@H]1C(=O)N[C@@H](C=O)CCCN=C(N)N` showed a Selectivity [2] of 308, an IC50 (Prothrombin [3]) of 12 µM and a Selectivity [4] of 67. For the same compound, the inhibition (Prothrombin [1]) was 100%.
Work on `CN(CCc1ccccc1)C(=O)C1CCCCC1C(=O)N[C@@H](C=O)CCCN=C(N)N` (stereo partly drawn) yielded an IC50 (Prothrombin [3]) of 84 µM and an inhibition (Prothrombin [1]) of 100%.
